According to patent US20260152468A1, “NOVEL CERAMIDE, PREPARATION METHOD THEREFOR, AND USE THEREOF” (SHENZHEN DIKEMAN BIOTECHNOLOGY CO., LTD., priority 2022, published 2026):

Tests used:
[1] = tested on: interleukin-6 (IL-6) cytokine expression in B16 murine melanoma cells; assay: Anti-inflammatory repair efficacy, LPS-induced cell assay (IL-6 ELISA kit); type: cell-based; conditions: 1 mmol/L
Experimental: B16 murine melanoma cells were seeded in a 96-well plate at a cell density of 1×10^4 cells/well and placed in an incubator overnight to allow cell adhesion. After 24 hours of incubation, the supernatant was discarded, and 100 μL of samples (i.e., the product obtained in Example 1) at different concentrations diluted with DMEM medium and DMEM culture medium free of the samples as a negative control group were added into the cells, each group in triplicate, followed by incubating under an atmosphere of 5% CO2 expressed by mass fraction at 37° C. At 2 hours after administration, 10 μg/mL LPS was added into both lipopolysaccharide model groups and experimental groups and then co-incubated for 24 hours. After the reaction, 50 μL of the cell supernatant was taken and detected for IL-6 gene expression using a IL-6 ELISA kit.

[2] = tested on: AQP3 (aquaporin 3) expression in HaCat cells; assay: Moisturizing efficacy by AQP3 cell assay; type: cell-based, human; conditions: 2.5 mmol/L
Experimental: Aquaporin 3 (AQP3) is a transporter factor responsible for transport of water, glycerol and urea on cell membrane, which is mainly expressed in keratinocytes and skin fibroblasts. AQP3 is not only involved in skin hydration and barrier function, but also plays an important role in skin damage, repair and healing, and is an important guarantee for maintenance of normal skin morphology and function.
The HaCat cells were seeded in a 96-well plate at a density of 1×10^4 cells/well and placed in an incubator overnight to allow cell adhesion. After 24 hours of incubation, the supernatant was discarded, and 100 μL of samples (i.e., the product obtained in Example 1) at different concentrations diluted with DMEM medium and DMEM medium free of the samples as a negative control group were added into the plate, each group in triplicate, followed by incubating under an atmosphere of 5% CO2 expressed by mass fraction at 37° C. At 2 hours after administration, […] LPS was added into both lipopolysaccharide model groups and experimental groups and then co-incubated for 24 hours. After completing the reaction, 50 μL of the cell supernatant was taken and detected for the AQP3 gene expression in the cells using a AQP3 assay kit.

[3] = tested on: human keratinocytes (HaCaT) cells; assay: Cell proliferation and viability by MTT assay; type: cell-based
Experimental: Cell proliferation and viability as detected by methylthiazolyldiphenyl-tetrazoliun bromide (MTT) assay: human keratinocytes (HaCaT) cells were seed in a 96-well plate at a cell density of 1×10^4 cells/well and placed in an incubator overnight. After 24 hours of incubation, the supernatant was discarded and 100 μL of culture medium containing samples (i.e., the product obtained in Example 1) at different concentrations or blank control (culture medium only) was added into the cells, and incubated for additional 24 hours, followed by removing the culture medium, adding 100 μL of MTT to each well, measuring the absorbance at 450 nm, and calculating the cell viability as: Cell viability=Adosing/Ablank×100%.

Row | Substance | inhibition of expression of IL-6 inflammatory factors, comparison (FIG. 5) [1] | increase of expression level of AQP3, comparison (FIG. 8) [2] | abilities of cell healing and tissue-repairing (cell proliferation and viability assay, FIGS. 1-3) [3]
1 | ceramide 3 | effectively inhibit the expression of IL-6 inflammatory factors | effectively increase the expression level of AQP3 | –
2 | ceramide 3B | effectively inhibit the expression of IL-6 inflammatory factors | effectively increase the expression level of AQP3 | relatively good abilities of cell healing and tissue-repairing
